Consider 5 molecules from ChEMBL document CHEMBL1201862, “PubChem BioAssay data set” (2004).

In test [1] the target is T1, Neuropeptide Y receptor type 2 (Homo sapiens, UniProt P49146). Nature of the test: NPY-Y2 antagonist potency, selectivity check, dose response, counter-screen for NPY-Y1 antagonist project, cell-based (AID 1278). The format is functional. Background: The purpose of a counterscreen is to sort out artefacts and off-target activity.
The target of test [2] is T2, Neuropeptide Y receptor type 1 (Homo sapiens, UniProt P25929). As to the kind of experiment: NPY-Y1 receptor antagonist potency, dose response, cell-based (AID 1277). The format is functional.
Test [3] has as its system Streptococcus. Nature of the test: Group A Streptococcus viability loss, dose response, counter-screen for streptokinase expression inhibitor project, luminescence, BacTiterGlo (AID 1915).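 Note: potency for reduction of bacterial viability or growth.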 The format is functional, organism-based.
Test [4] has as its target Ion channel NompC (Danio rerio, UniProt Q7T1G6). As to the kind of experiment: Fluorescence counterscreen assay for TRPML3 agonists: dose response cell-based high-throughput screening assay to identify agonists of the transient receptor potential channel N1 (TRPN1). [Related pubchem assays: 1526, 1424, 1448 ]. The class given is functional.
For test [5], the target named is Mucolipin-3 (Homo sapiens, UniProt Q8TDD5). As to the kind of experiment: Dose response cell-based high-throughput screening assay for agonists of the transient receptor potential channel ML3 (TRPML3). [Related pubchem assays: 1526, 1424, 1448 ]. The class given is functional.
Test [6] concerns the target Photoreceptor-specific nuclear receptor (Homo sapiens, UniProt Q9Y5X4). The format is functional, cell-based.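 Note: CHO-S cells with Gal4-NCOR and VP16-NR2E3 two-hybrid luciferase reporter.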
Test [7] relates to Streptococcus sp. 'group A'. As to the kind of experiment: growth inhibition of control SK(-) GAS strain, dose response, counter-screen for streptokinase expression inhibitor project, luminescence, kanamycin, BacTiterGlo, confirmation (AID 1900). The format is functional, organism-based.
For test [8], the target named is Oxytocin receptor (Homo sapiens, UniProt P30559). As to the kind of experiment: Fluorescence-based cell-based high throughput dose response assay for potentiators of Oxytocin Receptor (OXTR). [Related pubchem assays: 434985 (Confirmation screen (OXTR potentiators in triplicate)), 2481 (Summary (OXTR potentiators)), 2445 (Primary screen (OXTR potentiators in singlicate))]. The format is functional.

Test [9] deals with T2, Neuropeptide Y receptor type 1. The class given is functional.
The target of test [10] is T1, Neuropeptide Y receptor type 2. The format is functional, cell-based.
The target of test [11] is Galanin receptor type 2 (Homo sapiens, UniProt O43603). As to the kind of experiment: Dose Response cell-based high-throughput screening assay to identify antagonists of galanin receptor 2 (GALR2). [Related pubchem assays: 828, 866 ]. The format is functional.
Test [12] can be described thus: Luminescence Cell-Based Dose Response HTS to Identify Inhibitors of 5'UTR Stem-Loop Driven Prion Protein mRNA Translation in H4 Neuroglioblastoma Cells. [Related pubchem assays: 1827 (Project Summary), 1813 (Primary HTS)]. The class given is functional.
Test [13] addresses Heat shock protein HSP 90-alpha (Homo sapiens, UniProt P07900). The format is functional, organism-based.
Test [14] is described as follows: inhibitors of firefly luciferase expression or activity, dose response, H4 neuroglioma cells, luminescence (AID 1990). The format is functional, cell-based.
A short description of test [15]: Counterscreen for AddAB inhibitors: absorbance-based bacterial cell-based high throughput dose response assay for inhibitors of bacterial viability. [Related pubchem assays (depositor defined):AID435030, AID449728, AID449731, AID488942, AID488955, AID488956]. The class given is functional.
A short description of test [16]: NIH-3T3 fibroblast cytotoxicity, dose response, cytotoxicity control, cell-based, fluorescence, Alamar Blue, secondary assay (AID 2327).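 Note: NIH-3T3 mouse fibroblasts cultured with fluconazole at 8 µg/mL.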 The format is functional. (In general: Resazurin is reduced to fluorescent resorufin, in cell work by metabolically active cells.)
Test [17] deals with BJ. Nature of the test: cells. The format is functional, cell-based. As to conditions: Homo sapiens.
Test [18] deals with T3, Exodeoxyribonuclease V (Escherichia coli (strain K12), UniProt P04993+P07648+P08394).
T3 sequence (P04993 whole entry): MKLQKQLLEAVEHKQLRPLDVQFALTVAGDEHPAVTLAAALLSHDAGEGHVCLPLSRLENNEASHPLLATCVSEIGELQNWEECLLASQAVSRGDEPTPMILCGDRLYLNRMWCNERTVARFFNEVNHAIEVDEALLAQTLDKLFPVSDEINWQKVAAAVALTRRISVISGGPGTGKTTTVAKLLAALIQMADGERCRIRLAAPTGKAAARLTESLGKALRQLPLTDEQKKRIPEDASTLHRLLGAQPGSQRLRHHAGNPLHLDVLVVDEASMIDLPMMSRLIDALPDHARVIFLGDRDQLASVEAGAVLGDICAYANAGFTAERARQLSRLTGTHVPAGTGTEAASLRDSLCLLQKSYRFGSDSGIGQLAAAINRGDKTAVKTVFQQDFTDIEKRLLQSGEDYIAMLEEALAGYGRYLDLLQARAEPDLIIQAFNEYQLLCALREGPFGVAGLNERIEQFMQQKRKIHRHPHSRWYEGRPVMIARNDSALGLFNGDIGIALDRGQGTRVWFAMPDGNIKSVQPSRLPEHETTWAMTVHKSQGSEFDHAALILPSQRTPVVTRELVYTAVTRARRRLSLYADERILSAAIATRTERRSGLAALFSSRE
T3 sequence (P07648 whole entry): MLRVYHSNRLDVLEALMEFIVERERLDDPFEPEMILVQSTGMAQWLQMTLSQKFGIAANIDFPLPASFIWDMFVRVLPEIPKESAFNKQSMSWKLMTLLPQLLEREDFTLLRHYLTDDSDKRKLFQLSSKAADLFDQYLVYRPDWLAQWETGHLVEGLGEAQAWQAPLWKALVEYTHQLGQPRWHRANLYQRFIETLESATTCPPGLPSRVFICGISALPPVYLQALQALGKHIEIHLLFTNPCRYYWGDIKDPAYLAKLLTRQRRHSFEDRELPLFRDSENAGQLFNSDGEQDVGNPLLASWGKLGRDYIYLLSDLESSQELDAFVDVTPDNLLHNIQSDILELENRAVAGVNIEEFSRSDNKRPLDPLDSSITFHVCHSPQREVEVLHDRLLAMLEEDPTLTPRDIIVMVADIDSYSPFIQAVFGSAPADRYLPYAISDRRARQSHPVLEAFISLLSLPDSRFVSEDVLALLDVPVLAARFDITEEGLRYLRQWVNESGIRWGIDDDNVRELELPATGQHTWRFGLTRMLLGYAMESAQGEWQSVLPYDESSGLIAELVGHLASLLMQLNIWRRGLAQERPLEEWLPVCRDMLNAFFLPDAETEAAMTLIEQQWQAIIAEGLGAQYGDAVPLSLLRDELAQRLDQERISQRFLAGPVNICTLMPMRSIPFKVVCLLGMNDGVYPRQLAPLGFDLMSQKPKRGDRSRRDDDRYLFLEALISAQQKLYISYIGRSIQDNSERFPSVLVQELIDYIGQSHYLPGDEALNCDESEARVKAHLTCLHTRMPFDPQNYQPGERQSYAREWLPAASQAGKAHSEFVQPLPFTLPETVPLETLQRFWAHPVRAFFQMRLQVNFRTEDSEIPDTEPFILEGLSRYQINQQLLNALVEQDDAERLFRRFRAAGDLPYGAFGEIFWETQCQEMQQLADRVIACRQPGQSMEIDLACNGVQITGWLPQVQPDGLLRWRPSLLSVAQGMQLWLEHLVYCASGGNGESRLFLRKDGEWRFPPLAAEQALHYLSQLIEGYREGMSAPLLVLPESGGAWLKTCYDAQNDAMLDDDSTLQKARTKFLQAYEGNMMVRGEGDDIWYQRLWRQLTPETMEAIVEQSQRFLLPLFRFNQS
T3 sequence (P08394 whole entry): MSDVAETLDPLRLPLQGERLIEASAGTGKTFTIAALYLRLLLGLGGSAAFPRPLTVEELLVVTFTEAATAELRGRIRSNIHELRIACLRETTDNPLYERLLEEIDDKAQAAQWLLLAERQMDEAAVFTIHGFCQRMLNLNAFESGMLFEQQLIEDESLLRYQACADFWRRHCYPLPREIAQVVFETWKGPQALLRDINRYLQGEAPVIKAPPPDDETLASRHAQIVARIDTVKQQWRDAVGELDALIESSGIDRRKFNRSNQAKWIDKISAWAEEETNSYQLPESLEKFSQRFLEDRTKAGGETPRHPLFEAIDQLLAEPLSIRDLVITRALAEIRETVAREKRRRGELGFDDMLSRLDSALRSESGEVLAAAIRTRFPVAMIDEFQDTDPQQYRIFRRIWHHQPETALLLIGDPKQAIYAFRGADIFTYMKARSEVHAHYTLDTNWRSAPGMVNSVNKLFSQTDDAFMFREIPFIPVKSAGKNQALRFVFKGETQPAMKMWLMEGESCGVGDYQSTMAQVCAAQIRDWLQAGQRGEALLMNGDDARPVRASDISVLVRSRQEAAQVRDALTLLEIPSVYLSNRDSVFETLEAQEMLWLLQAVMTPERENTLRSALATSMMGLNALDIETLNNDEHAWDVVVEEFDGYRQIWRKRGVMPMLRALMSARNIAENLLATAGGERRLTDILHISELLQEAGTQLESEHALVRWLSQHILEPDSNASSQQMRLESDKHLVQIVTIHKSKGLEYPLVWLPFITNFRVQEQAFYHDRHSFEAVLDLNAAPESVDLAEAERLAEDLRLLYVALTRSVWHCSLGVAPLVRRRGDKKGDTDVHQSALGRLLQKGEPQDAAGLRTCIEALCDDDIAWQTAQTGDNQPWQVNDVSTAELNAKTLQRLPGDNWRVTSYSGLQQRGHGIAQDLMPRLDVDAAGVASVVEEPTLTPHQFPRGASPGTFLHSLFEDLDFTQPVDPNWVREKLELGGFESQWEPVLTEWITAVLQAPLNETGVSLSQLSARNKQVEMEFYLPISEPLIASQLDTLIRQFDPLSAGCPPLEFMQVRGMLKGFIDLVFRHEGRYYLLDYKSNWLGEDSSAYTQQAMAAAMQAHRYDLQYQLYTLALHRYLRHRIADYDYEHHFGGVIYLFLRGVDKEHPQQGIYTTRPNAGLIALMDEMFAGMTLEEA
As to the kind of experiment: E. coli RecBCD inhibitors, dose response, counter-screen for AddAB inhibitor project, absorbance, V66 E. coli, mutant T4 phage (AID 492957). The format is functional, cell-based, Escherichia coli str. K-12 substr. MG1655.

In test [19] the test system is BJ. Nature of the test: cytotoxicity toward BJ-TERT-LT-ST fibroblasts, dose response, cell-based, RAS-independent, luminescence (AID 1935).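 Note: BJ fibroblasts immortalized with TERT plus LT and ST oncogenes.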 The format is functional. As to conditions: Homo sapiens.
Test [20] has as its target Nonstructural protein 1 (Influenza A virus, UniProt Q194T2). The class given is functional, Influenza A virus (A/California/07/2009(H1N1)).
In test [21] the test system is BJ. Nature of the test: cytotoxicity toward BJ-TERT fibroblasts, dose response, cell-based, RAS-independent, luminescence (AID 1933). The class given is functional. The settings on record: Homo sapiens.
For test [22], the system named is Danio rerio. As to the kind of experiment: In Vivo Angiogenesis Dose-Response Confirmation. [Related pubchem assays: 732 (Assay preceding this confirmatory assay.)]. The class given is functional, organism-based.
Test [23] has as its system BJ. Nature of the test: cytotoxicity toward Ras-transformed BJeLR fibroblasts, dose response, cell-based, alamar blue fluorescence, cherrypicked samples (AID 2631).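 Note: confirmatory dose-response assay in RAS-dependent BJ fibroblasts engineered with TERT, LT and ST, with cytotoxicity read by fluorescence.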 As to conditions: Homo sapiens. The format is functional.
The nature of test [24]: cytotoxicity toward DRD oncogenic fibroblasts, dose response, cell-based, non-viral oncogenic, luminescence (AID 1934). The format is functional. The settings on record: Homo sapiens.
The nature of test [25]: inhibitors of SNCA 5'UTR-driven reporter translation, confirmation, H4 neuroglioma cells, luminescence (AID 1988). The format is functional, cell-based.

The IC50 is the concentration at which inhibition is half-maximal. By EC50 is commonly meant the concentration that produces a half-maximal response. In general, AC50 refers to the concentration giving half of the maximal activity seen.

Each structure is given as a SMILES string. Structures can show the parent of a compound that is named as a salt. The source made the active and inactive calls. Some results are limits rather than exact numbers.

T1 sequence (P49146 whole entry): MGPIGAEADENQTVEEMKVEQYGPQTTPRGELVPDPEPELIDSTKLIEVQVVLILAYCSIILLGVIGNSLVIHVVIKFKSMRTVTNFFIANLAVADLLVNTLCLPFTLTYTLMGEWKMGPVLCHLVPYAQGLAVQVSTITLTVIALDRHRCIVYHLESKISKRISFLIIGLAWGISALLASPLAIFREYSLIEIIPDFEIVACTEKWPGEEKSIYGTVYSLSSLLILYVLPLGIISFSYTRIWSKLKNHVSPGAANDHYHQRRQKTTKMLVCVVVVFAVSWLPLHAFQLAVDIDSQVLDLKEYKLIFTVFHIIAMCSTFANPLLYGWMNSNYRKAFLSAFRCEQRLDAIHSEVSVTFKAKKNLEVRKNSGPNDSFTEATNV
T2 sequence (P25929 whole entry): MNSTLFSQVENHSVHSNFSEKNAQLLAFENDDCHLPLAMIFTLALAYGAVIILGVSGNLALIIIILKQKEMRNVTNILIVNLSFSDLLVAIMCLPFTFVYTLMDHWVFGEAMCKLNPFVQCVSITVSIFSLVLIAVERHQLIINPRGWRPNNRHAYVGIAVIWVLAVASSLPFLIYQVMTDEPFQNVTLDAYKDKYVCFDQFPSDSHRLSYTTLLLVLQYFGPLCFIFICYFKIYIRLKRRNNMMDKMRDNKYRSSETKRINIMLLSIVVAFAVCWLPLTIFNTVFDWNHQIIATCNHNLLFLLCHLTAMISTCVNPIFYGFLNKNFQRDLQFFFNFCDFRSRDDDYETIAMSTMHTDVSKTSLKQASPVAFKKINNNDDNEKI
Oxytocin receptor, sequence (P30559 whole entry): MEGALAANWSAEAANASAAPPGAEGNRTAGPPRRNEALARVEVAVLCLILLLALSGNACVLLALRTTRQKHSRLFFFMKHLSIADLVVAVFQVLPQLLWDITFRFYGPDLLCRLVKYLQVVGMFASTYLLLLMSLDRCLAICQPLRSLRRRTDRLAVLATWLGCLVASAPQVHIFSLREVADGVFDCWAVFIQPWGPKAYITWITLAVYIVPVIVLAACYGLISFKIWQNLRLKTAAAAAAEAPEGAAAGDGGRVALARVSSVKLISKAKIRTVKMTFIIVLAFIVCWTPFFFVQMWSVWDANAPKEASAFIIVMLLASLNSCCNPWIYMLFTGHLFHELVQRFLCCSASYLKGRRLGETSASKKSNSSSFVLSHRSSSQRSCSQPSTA
Photoreceptor-specific nuclear receptor, sequence (Q9Y5X4 whole entry, the tested form may be a part): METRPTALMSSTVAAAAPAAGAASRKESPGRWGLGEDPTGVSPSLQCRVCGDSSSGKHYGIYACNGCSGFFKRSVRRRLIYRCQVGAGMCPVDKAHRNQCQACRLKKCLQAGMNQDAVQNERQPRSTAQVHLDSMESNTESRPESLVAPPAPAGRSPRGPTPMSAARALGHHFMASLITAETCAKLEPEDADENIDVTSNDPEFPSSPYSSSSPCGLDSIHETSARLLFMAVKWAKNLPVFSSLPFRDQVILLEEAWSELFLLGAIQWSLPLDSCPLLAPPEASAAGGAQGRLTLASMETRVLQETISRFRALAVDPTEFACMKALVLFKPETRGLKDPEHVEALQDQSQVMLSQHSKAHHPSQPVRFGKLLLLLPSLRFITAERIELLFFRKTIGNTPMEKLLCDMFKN
Mucolipin-3, sequence (Q8TDD5 whole entry, the tested form may be a part): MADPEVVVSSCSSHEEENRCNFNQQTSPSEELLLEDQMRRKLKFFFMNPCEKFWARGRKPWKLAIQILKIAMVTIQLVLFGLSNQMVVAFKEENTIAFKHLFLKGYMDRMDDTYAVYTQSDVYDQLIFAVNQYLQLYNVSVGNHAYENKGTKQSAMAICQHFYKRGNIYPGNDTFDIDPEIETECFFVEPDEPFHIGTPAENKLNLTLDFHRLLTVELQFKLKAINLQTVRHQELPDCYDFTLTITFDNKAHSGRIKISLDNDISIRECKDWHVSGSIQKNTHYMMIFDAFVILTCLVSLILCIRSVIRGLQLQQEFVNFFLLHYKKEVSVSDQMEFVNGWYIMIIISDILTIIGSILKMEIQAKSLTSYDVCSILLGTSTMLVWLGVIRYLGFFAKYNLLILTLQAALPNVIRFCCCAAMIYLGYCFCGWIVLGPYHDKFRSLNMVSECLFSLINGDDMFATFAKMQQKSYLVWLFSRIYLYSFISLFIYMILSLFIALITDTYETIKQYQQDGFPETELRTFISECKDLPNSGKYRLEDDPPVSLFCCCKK
Ion channel NompC, sequence (Q7T1G6 whole entry): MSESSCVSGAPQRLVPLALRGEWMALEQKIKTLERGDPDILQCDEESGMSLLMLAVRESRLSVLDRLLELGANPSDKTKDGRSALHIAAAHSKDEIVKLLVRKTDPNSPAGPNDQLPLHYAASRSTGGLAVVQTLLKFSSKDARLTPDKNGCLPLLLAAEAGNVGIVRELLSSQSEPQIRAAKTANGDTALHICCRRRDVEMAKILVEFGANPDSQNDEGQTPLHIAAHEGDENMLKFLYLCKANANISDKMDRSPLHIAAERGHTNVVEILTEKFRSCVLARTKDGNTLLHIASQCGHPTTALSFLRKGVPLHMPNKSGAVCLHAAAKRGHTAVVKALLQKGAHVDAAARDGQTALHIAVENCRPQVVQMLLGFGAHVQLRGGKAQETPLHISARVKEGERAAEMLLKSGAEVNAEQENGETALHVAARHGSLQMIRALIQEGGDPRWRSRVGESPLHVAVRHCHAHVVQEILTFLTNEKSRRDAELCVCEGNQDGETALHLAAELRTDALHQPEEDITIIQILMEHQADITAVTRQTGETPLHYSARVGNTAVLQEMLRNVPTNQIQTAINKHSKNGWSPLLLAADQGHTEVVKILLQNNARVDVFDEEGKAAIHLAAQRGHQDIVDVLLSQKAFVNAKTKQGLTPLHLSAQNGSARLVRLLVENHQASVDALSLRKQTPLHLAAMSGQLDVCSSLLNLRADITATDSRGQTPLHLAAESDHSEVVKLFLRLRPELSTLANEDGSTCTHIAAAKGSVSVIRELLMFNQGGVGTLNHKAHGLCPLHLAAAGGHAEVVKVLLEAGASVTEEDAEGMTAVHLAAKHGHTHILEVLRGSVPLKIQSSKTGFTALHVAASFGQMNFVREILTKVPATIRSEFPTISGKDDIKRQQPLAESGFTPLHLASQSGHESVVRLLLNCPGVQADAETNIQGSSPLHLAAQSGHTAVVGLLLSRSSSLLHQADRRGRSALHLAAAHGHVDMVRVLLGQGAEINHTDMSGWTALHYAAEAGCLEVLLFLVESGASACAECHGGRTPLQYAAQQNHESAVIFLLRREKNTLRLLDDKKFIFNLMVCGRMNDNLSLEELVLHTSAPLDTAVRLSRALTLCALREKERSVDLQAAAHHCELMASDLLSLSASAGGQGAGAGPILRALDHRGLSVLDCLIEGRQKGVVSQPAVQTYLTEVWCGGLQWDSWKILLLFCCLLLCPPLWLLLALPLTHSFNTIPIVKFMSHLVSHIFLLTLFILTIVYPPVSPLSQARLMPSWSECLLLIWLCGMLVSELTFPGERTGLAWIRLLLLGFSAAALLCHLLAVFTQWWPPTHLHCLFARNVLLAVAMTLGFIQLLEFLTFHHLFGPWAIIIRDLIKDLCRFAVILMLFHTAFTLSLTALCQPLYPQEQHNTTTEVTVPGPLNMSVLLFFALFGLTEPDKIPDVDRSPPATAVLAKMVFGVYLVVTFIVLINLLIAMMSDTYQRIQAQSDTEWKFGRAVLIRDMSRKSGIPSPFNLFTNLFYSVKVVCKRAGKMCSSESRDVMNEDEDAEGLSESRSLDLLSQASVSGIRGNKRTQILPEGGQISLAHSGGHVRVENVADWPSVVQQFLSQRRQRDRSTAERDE
Galanin receptor type 2, sequence (O43603 whole entry): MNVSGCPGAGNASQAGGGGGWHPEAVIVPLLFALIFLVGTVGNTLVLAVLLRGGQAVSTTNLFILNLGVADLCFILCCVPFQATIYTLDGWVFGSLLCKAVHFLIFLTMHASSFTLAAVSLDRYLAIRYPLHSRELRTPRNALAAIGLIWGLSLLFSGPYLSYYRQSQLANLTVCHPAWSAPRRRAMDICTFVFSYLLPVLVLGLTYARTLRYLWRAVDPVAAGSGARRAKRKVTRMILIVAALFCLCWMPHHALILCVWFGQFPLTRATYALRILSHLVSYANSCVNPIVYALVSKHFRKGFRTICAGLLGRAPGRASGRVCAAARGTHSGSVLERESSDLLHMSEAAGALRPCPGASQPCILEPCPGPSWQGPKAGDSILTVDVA
Nonstructural protein 1, sequence (Q194T2 whole entry): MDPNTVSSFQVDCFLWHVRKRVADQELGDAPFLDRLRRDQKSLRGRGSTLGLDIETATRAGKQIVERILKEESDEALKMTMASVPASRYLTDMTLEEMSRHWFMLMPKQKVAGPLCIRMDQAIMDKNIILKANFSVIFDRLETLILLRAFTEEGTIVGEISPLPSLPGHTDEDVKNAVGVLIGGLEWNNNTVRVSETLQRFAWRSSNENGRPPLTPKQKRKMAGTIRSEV

For the molecule `COc1ccc(N(C)S(=O)(=O)c2cccc(C(=O)NC3CCC(C)CC3)c2)cc1` (stereo not given), the IC50 in [1] and in [2] was > 35 µM (not active) each time.
Regarding `N=C1SCC(=O)N1c1ncc(Cc2cccc(Cl)c2)s1`, the EC50 in test [3] was 3.33 µM (active); in test [4], > 29.9 µM (not active); in test [5] it was 5.44 µM (active); in test [7], 0.244 µM (active). In addition, in test [6], the 50% inhibitory concentration (IC50) was 2.63 µM (active).
Turning to `CCOc1ccccc1NC(=O)c1cccc(NC(=O)CC(c2ccccc2)c2ccccc2)c1`, in test [8], the half-maximal effective concentration (EC50) was > 29.9 µM (not active).
For `CN(C)C(=O)C(CCN1CCC(O)(c2ccc(Cl)cc2)CC1)(c1ccccc1)c1ccccc1` [LOPERAMIDE HYDROCHLORIDE], the concentration for half-maximal inhibition (IC50) in [9] and in test [10] was > 35 µM (not active) each time.
Regarding `c1cnc2c(c1)ccc1cccnc12` [PHENANTHROLINE], the half-maximal inhibitory concentration (IC50) in test [11] is > 42 µM (not active); in test [15], 35.2 µM (inactive); in [18], 30.5 µM (inactive); in [20], 0.902 µM (active); in test [22] it was 7.51 µM (active). Also, the EC50 is 5.66 µM (active) in test [12]; 6.95 µM (active) in test [14]; 9.41 µM (inconclusive) in [16]; 8.88 µM (inconclusive) in test [17]; 7.62 µM (inconclusive) in test [19]; 5.03 µM (active) in [21]. Further, the EC50 is 6.14 µM (active) in test [23], 16.4 µM (active) in test [24] and 7.02 µM (active) in test [25]. Besides, the concentration at half-maximal activity (AC50) in test [13] was 7.11 µM (active).
